Source: ChEMBL document CHEMBL1201862, “PubChem BioAssay data set” (2004)
Active and inactive are the calls of the source.

Assays:
Mucolipin-3 = Mucolipin-3 (Homo sapiens, UniProt Q8TDD5); test: Dose response cell-based high-throughput screening assay for agonists of the transient receptor potential channel ML3 (TRPML3). [Related pubchem assays: 1526, 1424, 1448 ]; type: functional
Ion channel NompC = Ion channel NompC (Danio rerio, UniProt Q7T1G6); test: Fluorescence counterscreen assay for TRPML3 agonists: dose response cell-based high-throughput screening assay to identify agonists of the transient receptor potential channel N1 (TRPN1). [Related pubchem assays: 1526, 1424, 1448 ]; type: functional
Sequence of Ion channel NompC (Q7T1G6 whole entry, the tested form may be a part): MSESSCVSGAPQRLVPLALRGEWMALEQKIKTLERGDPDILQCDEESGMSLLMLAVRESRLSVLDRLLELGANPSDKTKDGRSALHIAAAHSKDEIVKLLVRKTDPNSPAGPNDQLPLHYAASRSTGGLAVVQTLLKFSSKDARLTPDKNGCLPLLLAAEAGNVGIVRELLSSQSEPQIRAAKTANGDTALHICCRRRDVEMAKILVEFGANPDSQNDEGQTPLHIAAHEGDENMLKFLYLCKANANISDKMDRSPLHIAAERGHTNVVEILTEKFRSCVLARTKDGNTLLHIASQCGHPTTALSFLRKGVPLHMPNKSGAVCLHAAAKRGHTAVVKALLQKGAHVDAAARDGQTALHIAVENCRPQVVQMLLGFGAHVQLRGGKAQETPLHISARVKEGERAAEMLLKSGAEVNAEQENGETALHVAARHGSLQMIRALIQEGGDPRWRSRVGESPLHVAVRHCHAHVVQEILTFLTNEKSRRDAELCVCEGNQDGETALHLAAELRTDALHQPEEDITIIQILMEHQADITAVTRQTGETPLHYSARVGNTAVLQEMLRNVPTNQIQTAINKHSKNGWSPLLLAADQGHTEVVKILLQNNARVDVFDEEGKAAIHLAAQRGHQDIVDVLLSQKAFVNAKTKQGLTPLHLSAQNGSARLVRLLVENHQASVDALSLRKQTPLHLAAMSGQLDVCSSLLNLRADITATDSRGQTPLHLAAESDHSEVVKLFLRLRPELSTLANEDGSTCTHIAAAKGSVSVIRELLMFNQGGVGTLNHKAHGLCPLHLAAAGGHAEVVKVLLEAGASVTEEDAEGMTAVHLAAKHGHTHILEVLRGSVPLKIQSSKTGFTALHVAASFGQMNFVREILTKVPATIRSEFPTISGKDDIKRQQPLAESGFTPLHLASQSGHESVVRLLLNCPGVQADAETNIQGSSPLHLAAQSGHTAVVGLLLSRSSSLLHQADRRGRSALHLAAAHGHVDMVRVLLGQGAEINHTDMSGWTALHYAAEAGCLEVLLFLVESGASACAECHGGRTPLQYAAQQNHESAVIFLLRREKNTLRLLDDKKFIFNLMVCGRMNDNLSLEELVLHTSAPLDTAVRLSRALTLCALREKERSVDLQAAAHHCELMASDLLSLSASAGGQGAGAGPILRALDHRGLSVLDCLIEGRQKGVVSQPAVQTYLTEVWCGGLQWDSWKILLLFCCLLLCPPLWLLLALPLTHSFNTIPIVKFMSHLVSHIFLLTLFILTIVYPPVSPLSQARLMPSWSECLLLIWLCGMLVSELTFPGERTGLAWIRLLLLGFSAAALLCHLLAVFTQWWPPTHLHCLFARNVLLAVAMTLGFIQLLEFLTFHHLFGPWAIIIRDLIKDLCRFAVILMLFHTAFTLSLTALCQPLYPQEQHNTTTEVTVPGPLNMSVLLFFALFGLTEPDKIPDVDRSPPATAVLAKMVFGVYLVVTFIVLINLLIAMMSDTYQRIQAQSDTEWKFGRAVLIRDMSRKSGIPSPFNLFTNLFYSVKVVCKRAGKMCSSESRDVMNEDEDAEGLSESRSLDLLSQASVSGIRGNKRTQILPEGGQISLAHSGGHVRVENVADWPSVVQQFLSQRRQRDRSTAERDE

[1] = target: T1, RNA-binding protein pos-1 (Caenorhabditis elegans, UniProt G5EF15); test: disruptors of C. elegans POS-1 RNA interaction – biochemical, fluorescence polarization, dose response (AID 1964);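 further: purified POS-1 fused to maltose binding protein made in E. coli; potency of compounds blocking POS-1 binding to fluorescent RNA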
T1 sequence (G5EF15 whole entry): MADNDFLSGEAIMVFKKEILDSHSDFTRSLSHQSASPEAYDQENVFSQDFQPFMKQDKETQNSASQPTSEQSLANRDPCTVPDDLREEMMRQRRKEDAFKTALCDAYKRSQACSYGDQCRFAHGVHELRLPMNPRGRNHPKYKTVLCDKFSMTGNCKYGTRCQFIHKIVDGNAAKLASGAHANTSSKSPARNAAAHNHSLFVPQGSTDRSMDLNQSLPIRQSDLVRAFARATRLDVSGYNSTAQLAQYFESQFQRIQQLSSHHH

[2] = target: T2, Zinc finger protein mex-5 (Caenorhabditis elegans, UniProt Q9XUB2); test: potency of MEX-5 RNA-binding blockers – biochemical, C. elegans, fluorescence polarization, dose response (AID 1960)
T2 sequence (Q9XUB2 whole entry): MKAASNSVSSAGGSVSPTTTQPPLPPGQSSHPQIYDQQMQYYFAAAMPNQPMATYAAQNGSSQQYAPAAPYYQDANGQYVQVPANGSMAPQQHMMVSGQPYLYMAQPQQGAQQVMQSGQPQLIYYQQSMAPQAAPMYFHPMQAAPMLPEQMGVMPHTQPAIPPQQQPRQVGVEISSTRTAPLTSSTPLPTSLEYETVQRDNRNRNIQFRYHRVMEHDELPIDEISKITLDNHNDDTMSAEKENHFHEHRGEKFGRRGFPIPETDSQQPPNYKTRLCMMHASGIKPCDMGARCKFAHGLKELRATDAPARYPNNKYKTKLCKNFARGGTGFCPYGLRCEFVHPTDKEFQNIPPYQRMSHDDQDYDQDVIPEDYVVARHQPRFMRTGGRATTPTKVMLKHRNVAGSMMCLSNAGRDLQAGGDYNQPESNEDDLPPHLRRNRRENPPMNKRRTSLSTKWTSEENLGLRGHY

[3] = viability of PTEN-deleted HCT116 cells – cell-based, HCT116 PTEN knockout, dose response (AID 1047); type: functional;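 further: HCT116 colon tumor cells with PTEN knocked out; cells exposed to compound for 60 hours before readout; potency for loss of cell viability measured by luminescence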
Estrogen receptor beta = Estrogen receptor beta (Homo sapiens, UniProt Q92731); test: blockers of SRC-3 recruitment to ERβ – biochemical, ELISA, streptavidin-HRP readout, orthogonal assay, confirmation (AID 1060)
Sequence of Estrogen receptor beta (Q92731 whole entry): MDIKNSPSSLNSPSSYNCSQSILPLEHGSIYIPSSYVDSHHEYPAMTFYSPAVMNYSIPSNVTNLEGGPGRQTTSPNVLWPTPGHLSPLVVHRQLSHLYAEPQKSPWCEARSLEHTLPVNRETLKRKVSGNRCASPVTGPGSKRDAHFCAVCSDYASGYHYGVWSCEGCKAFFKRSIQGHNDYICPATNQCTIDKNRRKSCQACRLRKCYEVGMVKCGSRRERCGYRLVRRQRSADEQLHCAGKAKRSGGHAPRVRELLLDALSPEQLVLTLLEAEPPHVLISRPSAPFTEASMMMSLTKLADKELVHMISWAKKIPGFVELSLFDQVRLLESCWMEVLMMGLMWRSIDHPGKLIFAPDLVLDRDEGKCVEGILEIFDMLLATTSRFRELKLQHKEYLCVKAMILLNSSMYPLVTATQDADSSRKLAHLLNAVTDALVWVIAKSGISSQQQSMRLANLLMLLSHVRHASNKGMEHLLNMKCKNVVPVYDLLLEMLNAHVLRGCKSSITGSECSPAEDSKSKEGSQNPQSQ

[4] = viability of HCT116 lacking mutant beta-catenin – cell-based, human colon tumor, dose response (AID 1045); type: functional;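 further: HCT116 colon tumor cells with beta catenin knocked out; cells exposed to compound for 60 hours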
[5] = target: Eukaryotic translation initiation factor 4E (Mus musculus, UniProt P63073); test: blockers of eIF4G binding by eIF4E – biochemical, TR-FRET, dose response (AID 855); type: functional;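 further: potency for disrupting eIF4E binding to eIF4GI seen as loss of FRET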
Sequence of Eukaryotic translation initiation factor 4E (P63073 whole entry): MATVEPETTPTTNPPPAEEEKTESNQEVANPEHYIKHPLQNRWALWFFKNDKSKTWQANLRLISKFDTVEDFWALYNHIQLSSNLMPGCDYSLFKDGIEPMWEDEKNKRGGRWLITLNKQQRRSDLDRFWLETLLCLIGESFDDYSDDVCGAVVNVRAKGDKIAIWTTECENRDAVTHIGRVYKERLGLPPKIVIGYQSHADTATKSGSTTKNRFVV

[6] = target: T3, Replicative DNA helicase DnaB (Mycobacterium tuberculosis, UniProt P9WMR3); test: DnaB intein splicing inhibitors, dose response, biochemical, cell-free fluorescence (AID 449749); type: functional
T3 sequence (P9WMR3 whole entry): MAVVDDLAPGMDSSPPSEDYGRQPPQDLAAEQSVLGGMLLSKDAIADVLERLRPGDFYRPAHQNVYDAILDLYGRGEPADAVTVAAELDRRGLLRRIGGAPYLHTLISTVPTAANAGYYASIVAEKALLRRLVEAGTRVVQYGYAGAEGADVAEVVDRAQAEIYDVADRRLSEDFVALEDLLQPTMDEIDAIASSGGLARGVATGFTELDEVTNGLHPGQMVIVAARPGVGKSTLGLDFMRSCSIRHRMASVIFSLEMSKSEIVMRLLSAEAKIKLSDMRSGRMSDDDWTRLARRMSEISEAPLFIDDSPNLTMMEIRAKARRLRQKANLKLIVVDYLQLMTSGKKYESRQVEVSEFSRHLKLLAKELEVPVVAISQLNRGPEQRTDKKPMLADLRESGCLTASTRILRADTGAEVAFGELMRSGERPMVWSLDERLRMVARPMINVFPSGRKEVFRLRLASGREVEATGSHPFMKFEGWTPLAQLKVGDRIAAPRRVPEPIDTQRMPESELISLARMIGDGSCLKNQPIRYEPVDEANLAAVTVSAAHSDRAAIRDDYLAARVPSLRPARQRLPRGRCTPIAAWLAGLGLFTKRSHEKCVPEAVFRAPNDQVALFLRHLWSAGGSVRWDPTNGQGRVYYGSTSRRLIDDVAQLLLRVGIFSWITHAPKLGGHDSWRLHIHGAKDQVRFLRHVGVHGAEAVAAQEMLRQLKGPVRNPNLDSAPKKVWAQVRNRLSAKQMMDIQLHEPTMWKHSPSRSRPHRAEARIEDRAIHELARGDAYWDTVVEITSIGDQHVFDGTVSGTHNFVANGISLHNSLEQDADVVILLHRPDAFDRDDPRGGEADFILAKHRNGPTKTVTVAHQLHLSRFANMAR

Protein RecA = target: T4, Protein RecA (Mycobacterium tuberculosis, UniProt P9WHJ3); test: Fluorescence Cell-Free Homogeneous Dose Retest to Identify Inhibitors of RecA-Intein Splicing Activity. [Related pubchem assays (depositor defined):AID2097, AID2223, AID489010, AID492950]; type: functional
T4 sequence (P9WHJ3 whole entry): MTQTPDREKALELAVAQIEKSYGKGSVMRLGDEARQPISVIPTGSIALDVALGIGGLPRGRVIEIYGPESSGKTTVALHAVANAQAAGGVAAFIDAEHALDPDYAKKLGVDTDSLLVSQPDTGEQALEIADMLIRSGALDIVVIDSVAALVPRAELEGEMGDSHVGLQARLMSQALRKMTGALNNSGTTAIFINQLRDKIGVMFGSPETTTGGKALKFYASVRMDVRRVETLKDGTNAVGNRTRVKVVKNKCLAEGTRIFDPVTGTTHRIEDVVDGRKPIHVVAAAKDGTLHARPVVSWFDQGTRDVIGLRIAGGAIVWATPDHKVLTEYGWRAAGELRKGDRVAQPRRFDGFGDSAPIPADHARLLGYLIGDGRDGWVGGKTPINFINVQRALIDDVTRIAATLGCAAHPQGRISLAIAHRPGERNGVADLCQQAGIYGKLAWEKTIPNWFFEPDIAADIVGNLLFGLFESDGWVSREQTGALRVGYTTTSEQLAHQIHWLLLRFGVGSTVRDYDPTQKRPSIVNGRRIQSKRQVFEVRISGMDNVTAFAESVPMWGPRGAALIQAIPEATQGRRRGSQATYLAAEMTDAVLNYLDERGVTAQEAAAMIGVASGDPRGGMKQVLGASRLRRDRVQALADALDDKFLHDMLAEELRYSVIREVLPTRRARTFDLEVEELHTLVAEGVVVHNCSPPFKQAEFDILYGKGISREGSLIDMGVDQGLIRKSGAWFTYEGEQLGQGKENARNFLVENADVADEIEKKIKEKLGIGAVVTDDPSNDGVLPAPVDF

HEK293 [7] = test: Fluorescence-based counterscreen for potentiators or agonists of NPY-Y2: cell-based high-throughput dose response assay to identify inhibitors of cyclic nucleotide gated ion channel (CNGC) activity. In this assay, the parental HEK293 cell line transfected with a cyclic-nucleotide gated ion channel (CNGC)-based cAMP sensor is used to measure inhibition of isoproterenol-induced CNGC activity by test compound.; type: functional; conditions: Homo sapiens
[8] = target: Neuropeptide Y receptor type 2 (Homo sapiens, UniProt P49146); test: Fluorescence-based cell-based high-throughput dose response assay for agonists of NPY-Y2. [Related pubchem assays: 1703 (Screening assay (CNGC inhibitors).), 1359 (Screening assay (NPY-Y2 potentiators or agonists).), 1304 (Screening assay (NPY-Y1 potentiators or agonists).), 1710 (Screening assay (NPY-Y2 agonists).), 1791 (Summary AID.)]; type: functional
Sequence of Neuropeptide Y receptor type 2 (P49146 whole entry): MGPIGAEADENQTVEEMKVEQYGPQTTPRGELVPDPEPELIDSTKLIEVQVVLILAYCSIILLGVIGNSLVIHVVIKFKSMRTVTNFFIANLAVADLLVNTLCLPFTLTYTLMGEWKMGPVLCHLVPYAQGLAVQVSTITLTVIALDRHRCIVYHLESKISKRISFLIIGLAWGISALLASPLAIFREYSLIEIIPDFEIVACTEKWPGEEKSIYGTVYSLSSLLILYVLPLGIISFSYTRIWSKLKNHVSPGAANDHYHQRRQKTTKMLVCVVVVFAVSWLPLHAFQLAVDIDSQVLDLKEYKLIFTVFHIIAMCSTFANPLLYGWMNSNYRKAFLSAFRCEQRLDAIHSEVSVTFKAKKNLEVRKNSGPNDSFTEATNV

[9] = target: Neuropeptide Y receptor type 1 (Homo sapiens, UniProt P25929); test: Fluorescence-based counterscreen for agonists of NPY-Y2: cell-based high-throughput dose response assay for agonists of NPY-Y1.; type: functional
Sequence of Neuropeptide Y receptor type 1 (P25929 whole entry): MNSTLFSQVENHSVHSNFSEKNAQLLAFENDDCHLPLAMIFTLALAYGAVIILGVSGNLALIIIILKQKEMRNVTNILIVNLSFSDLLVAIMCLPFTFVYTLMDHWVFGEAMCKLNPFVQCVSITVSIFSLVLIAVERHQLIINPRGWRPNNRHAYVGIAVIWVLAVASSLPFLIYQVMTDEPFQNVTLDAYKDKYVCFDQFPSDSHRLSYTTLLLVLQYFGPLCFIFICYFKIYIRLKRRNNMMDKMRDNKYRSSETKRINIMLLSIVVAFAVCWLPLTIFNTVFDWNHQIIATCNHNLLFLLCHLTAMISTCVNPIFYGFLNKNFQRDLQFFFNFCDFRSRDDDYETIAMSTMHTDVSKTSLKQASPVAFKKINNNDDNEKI

[10] = A cytotoxicity screen of small molecule inhibitors of the PhoP region in Salmonella typhi identified in the primary screen. [Related pubchem assays: 1850, 1864, 1985 ]; type: functional
[11] = test system: Streptococcus sp. 'group A'; test: Streptococcus pyogenes SK(-)GAS viability under kanamycin – luminescence, BacTiterGlo, confirmation, counter-screen for streptokinase expression inhibitor project, dose response (AID 1900); type: functional, organism-based
cells [12] = type: functional, cell-based
Streptokinase A = target: T5, Streptokinase A (Streptococcus pyogenes serotype M1, UniProt P10520); test: viability-normalized secreted streptokinase activity reduction – plasminogen activation absorbance, OD405, dose response (AID 1914); type: functional, Streptococcus pyogenes M1 GAS;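 further: secreted streptokinase activity via plasminogen activation per viability signal from cell pellet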
T5 sequence (P10520 whole entry): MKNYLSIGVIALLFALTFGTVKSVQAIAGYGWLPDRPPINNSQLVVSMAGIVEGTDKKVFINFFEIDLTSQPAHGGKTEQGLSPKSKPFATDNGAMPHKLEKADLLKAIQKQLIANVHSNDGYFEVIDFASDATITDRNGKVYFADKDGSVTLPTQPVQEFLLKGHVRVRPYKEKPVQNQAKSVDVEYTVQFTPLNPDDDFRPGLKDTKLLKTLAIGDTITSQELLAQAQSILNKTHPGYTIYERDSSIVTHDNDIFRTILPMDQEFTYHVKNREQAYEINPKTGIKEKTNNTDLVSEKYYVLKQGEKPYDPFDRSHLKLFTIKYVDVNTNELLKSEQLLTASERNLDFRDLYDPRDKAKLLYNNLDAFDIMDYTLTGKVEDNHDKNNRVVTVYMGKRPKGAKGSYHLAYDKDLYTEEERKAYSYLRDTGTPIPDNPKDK

[13] = Luminescence-based counterscreen assay for KLF5 inhibitors: dose response cell-based high throughput screening assay to identify cytotoxic compounds using the IEC-6 intestinal epithelial cell line. [Related pubchem assays: 1700 (Primary screen.), 1834 (Confirmation screen.), 1858 (Summary AID.), 1905 (Counterscreen.)]; type: functional
[14] = Trypanosoma cruzi growth suppression in host cells – NIH3T3 host cells, beta-gal luminescence, confirmation (AID 2044); type: functional, cell-based;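 further: intracellular parasites grown in NIH/3T3 mouse fibroblasts as host cells; luminescent beta-galactosidase reporter signal from transgenic T. cruzi replicating inside host cells; inhibitors lower the luminescence signal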
cells [15] = type: functional, cell-based; remark: listed apart in the source
[16] = NIH3T3 cell viability loss – ATP luminescence, mouse fibroblasts, counter-screen, dose response (AID 2010); type: functional, cell-based;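 further: cells exposed to compound for about 90 hours before reading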
Streptococcus = test: GAS UMAA2166 growth inhibition – luminescence, BacTiterGlo, counter-screen for streptokinase expression inhibitor project, dose response (AID 1915); type: functional, organism-based;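 further: potency for reduction of bacterial viability or growth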
HEK293 [17] = test: EBV LMP1 TES2 canonical NF-kB signalling blockers – cell-based, HEK293, luciferase, cherry-pick, dose response (AID 588343); type: functional; conditions: Homo sapiens
INS1 = test: INS-1E survival protection against cytokine death – cell-based, luminescence, retest, dose response (AID 449756); type: functional; conditions: Rattus norvegicus;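 further: cell death triggered by IL-1 beta plus TNF-alpha plus IFN-gamma mixture; protective hits raise ATP signal compared with cytokine alone wells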
HEK293 [18] = test: inhibition of NOD1-driven NF-kB reporter – cell-based, luminescence, uHTS, primary screen (AID 1578); type: functional; conditions: Homo sapiens
HEK293 [19] = test: cells; type: functional, cell-based; conditions: Homo sapiens
HEK293 [20] = test: cells; type: functional, cell-based; conditions: Homo sapiens; remark: listed apart in the source
[21] = target: Nucleotide-binding oligomerization domain-containing protein 2 (Homo sapiens, UniProt Q9HC29); test: inhibition of NOD2-driven NF-kB reporter – cell-based, luminescence, uHTS, HEK293 (AID 1566); type: functional
Sequence of Nucleotide-binding oligomerization domain-containing protein 2 (Q9HC29 whole entry, the tested form may be a part): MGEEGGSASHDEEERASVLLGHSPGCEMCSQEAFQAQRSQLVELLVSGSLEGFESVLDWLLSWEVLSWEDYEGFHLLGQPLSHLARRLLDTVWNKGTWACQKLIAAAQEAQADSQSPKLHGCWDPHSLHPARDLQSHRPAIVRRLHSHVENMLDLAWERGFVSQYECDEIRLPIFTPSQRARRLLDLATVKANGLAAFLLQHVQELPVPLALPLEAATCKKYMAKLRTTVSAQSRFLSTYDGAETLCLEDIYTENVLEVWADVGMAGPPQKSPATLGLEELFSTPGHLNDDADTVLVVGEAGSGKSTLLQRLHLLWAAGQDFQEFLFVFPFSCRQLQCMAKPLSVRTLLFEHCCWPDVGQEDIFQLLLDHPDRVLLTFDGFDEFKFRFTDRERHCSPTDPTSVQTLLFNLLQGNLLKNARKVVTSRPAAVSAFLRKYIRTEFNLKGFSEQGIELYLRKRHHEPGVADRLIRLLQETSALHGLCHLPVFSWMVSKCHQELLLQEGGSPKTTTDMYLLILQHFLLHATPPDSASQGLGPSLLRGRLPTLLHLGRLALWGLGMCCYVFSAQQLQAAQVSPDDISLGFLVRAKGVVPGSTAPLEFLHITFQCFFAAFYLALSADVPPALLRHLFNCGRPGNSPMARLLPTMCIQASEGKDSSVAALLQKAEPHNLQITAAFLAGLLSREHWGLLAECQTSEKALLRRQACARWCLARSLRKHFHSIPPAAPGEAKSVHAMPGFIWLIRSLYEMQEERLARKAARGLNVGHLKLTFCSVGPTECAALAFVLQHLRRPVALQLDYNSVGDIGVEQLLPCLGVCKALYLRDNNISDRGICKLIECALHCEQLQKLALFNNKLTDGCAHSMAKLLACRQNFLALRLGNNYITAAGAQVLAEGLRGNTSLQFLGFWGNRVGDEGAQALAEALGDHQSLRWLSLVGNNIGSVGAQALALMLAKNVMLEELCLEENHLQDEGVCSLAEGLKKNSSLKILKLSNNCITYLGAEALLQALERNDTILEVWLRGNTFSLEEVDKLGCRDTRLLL

HEK293 [22] = test: NOD2 signaling inhibitors in MDP-stimulated cells, cell-based, uHTS, luminescence (AID 2001); type: functional; conditions: Homo sapiens
HEK293 [23] = test: cells; type: functional, cell-based; conditions: Homo sapiens; remark: listed apart in the source

Sequence of Mucolipin-3 (Q8TDD5 whole entry): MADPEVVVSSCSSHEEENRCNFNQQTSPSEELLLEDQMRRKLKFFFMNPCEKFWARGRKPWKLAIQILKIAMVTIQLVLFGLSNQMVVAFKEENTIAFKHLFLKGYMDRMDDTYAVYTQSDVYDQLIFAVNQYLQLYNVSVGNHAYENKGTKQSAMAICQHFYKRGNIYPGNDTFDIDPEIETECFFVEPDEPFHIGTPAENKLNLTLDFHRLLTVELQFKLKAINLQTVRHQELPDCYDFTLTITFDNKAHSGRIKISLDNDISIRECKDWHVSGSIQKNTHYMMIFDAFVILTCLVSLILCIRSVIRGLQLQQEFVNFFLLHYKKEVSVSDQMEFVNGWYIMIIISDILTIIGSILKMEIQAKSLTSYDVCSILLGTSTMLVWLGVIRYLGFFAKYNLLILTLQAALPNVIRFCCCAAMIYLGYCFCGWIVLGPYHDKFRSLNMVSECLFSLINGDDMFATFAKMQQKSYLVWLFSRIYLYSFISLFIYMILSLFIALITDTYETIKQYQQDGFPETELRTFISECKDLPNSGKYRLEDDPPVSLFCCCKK

CC1CCN(S(=O)(=O)c2ccc3ccccc3c2)CC1
EC50 (Mucolipin-3): 2.83 µM (active) | EC50 (Ion channel NompC): > 29.9 µM (not active)

CN1CCN(C2=C(Cl)C(=O)C(c3cnc(N4CCCCC4)s3)=C(Cl)C2=O)CC1
EC50 [1]: 5.11 µM (active) | EC50 [2]: 4.18 µM (active) | EC50 [3]: 10.1 µM (active) | IC50 (Estrogen receptor beta): 0.63 µM (not active) | EC50 [4]: 8.57 µM (active) | IC50 [5]: 19.2 µM (inactive) | AC50 [6]: > 380 µM (inactive) | EC50 (Protein RecA): 1.29 µM (active)

CC(C)c1nnc(NC(=O)CCC(=O)Nc2ccc3c[nH]nc3c2)s1
EC50 (HEK293 [7]): > 35.4 µM (not active) | EC50 [8]: > 35.4 µM (not active) | EC50 [9]: > 35.4 µM (not active)

O=C(C1Cc2ccccc2CN1S(=O)(=O)c1ccc(F)cc1)N1CCCCC1 (configuration not stated)
EC50 (Mucolipin-3): 2.06 µM (active) | EC50 (Ion channel NompC): 13.3 µM (not active)

Clc1ccc(Nc2nc(C3CC3)cs2)cc1
EC50 [10]: > 50 µM (active)

CC(Nc1ccccc1)c1cccnc1 (configuration not stated)
EC50 (HEK293 [7]): > 35.4 µM (not active) | EC50 [8]: > 35.4 µM (not active) | EC50 [9]: > 35.4 µM (not active)

CCc1nc(C)ccc1OCC(=O)N(CC)CC
EC50 [10]: > 50 µM (active)

Cc1ccc2[nH]c(C(=O)N/N=C/c3ccccc3O)c(C)c2c1
EC50 [11]: 1.63 µM (active) | EC50 (cells [12]): 6.86 µM (active) | EC50 (Streptokinase A): > 150 µM (not active) | IC50 [13]: 3.15 µM (active) | EC50 [14]: 0.564 µM (active) | EC50 (cells [15]): > 350 µM (not active) | EC50 [16]: 6.55 µM (active) | EC50 (Streptococcus): 3.86 µM (active) | AC50 (HEK293 [17]): 7.07 µM (active) | AC50 (INS1): 0.507 µM (active)

Cc1cc(/C=N/Nc2nc(N)ncc2[N+](=O)[O-])c(C)n1-c1ccccc1F
EC50 (HEK293 [18]): 4.64 µM (active) | IC50 (HEK293 [19]): 1.77 µM (active) | IC50 (HEK293 [20]): > 20 µM (inactive) | IC50 [13]: > 39.8 µM (not active) | EC50 [21]: < 0.31 µM (inactive) | IC50 (HEK293 [22]): 6.02 µM (active) | IC50 (HEK293 [23]): > 20 µM (inactive)
